Reference: US9593110B2, “Neprilysin inhibitors” (Theravence Biopharma R&D IP, LLC, priority 2014, dated 2017)

Tests used:
[1] = Rat PO cassette assay (oral bioavailability); assay type: in vivo, Sprague-Dawley rats; settings: male, Sprague-Dawley, plasma, single oral gavage vs intravenous dose, 0.5 mg/kg
From the text: Oral bioavailability, or % F, is a measure of the percentage of a drug in an oral dose that actually reaches the systemic circulation. Compound losses can occur due to incomplete formulation dissolution, incomplete absorption due to compound insolubility or instability along the GI, or metabolism in the gut or across the gut wall. The fraction of the dose which reaches the hepatic portal vein must also then pass through the liver before reaching the systemic circulation. Compound metabolism, or “first-pass extraction,” can occur during this initial passage through the liver, and this is an additional potential source of compound loss. Oral bioavailability is calculated as the dose-normalized ratio of drug exposure after an oral dose to that after an intravenous dose, wherein the entire dose is delivered directly to the systemic circulation.
Each cassette study begins with 10 mM DMSO stock solutions of up to 5 different compounds. Typically, compounds are selected such no two compounds dosed in the same cassette have a molecular weight within 5 Da of each other. This simplifies subsequent bioanalysis. Appropriate volumes of each DMSO stock are added into a volume of vehicle (5% sodium bicarbonate, 5% dextrose in H2O) such that the final concentration of each compound is 0.25 mg/mL. Intravenous dosing solutions are sterile-filtered (0.2 μm) prior to dosing.
Pre-cannulated male Sprague-Dawley rats (3 per cassette per route) between 8 and 10 weeks of age were obtained from Harlan Laboratories (Indianapolis, Ind.). Rats received either a single oral gavage or a single intravenous (via lateral tail vein) dose (2 mL/kg) of the dosing solution. The final dose was 0.5 mg/kg. Serial blood samples were harvested via jugular vein cannula at 3 minutes, 15 minutes, 30 minutes, 1 hours, 2 hours, 4 hours, 6 hours, and 24 hours post-dose. Sampling was performed either manually or using automated blood samplers. Samples were collected into microtainer tubes containing EDTA as the anticoagulant and are processed to plasma by refrigerated centrifugation.
Plasma samples were extracted with 3 volumes of MeCN containing a suitable internal standard. Extracts were reconstituted into 3 volumes of water containing 1% formic acid, and analyzed via HPLC-coupled MS/MS. Plasma concentration-time data were analyzed using the Phoenix software (Pharsight Corp., St. Louis, Mo.) to calculate pharmacokinetic parameters.
Compounds of the invention of particular interest were those having a % F>10%, when tested in this assay.

human NEP = human NEP (Homo sapiens (Human), UniProt P08473); assay: In vitro enzyme inhibition assay at human NEP; settings: recombinant human NEP, fluorogenic peptide substrate, 37° C.; for Ki: pKi
Sequence of human NEP (P08473 52-750): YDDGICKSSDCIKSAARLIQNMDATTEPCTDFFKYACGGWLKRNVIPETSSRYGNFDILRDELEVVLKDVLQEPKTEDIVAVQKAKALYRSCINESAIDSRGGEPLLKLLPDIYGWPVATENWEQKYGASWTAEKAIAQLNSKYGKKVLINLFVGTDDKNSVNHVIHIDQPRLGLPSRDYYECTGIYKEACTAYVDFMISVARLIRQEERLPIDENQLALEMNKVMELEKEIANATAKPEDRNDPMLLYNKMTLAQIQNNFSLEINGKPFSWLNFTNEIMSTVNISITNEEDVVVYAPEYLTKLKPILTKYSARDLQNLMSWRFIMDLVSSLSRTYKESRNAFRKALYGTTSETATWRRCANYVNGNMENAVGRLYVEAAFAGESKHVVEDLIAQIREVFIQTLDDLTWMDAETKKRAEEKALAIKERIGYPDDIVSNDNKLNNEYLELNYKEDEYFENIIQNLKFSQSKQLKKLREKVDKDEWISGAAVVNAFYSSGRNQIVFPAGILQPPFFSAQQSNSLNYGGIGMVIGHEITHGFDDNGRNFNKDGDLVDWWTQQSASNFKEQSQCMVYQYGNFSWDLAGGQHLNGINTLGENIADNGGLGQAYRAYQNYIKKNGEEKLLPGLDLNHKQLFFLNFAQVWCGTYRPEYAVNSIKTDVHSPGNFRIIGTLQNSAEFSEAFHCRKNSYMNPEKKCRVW
Procedure: The inhibitory activities of compounds at human and rat neprilysin (EC 3.4.24.11; NEP) and human angiotensin converting enzyme (ACE) were determined using in vitro assays as described below.
The assays were performed in 384-well white opaque plates at 37° C. using the fluorogenic peptide substrates at a concentration of 10 μM in Assay Buffer (NEP: 50 mM HEPES, pH 7.5, 100 mM NaCl, 0.01% polyethylene glycol sorbitan monolaurate (Tween-20), 10 μM ZnSO4; ACE: 50 mM HEPES, pH 7.5, 100 mM NaCl, 0.01% Tween-20, 1 μM ZnSO4).
Test compounds were assayed over the range of concentrations from 10 μM to 20 pM. Test compounds were added to the enzymes and incubated for 30 minute at 37° C. prior to initiating the reaction by the addition of substrate.
Plates were read on a fluorometer with excitation and emission wavelengths set to 320 nm and 405 nm, respectively Inhibition constants were obtained by nonlinear regression of the data using the equation (GraphPad Software, Inc., San Diego, Calif.): v=v0/[1+(I/K′)] where v is the reaction rate, v0 is the uninhibited reaction rate, I is the inhibitor concentration and K′ is the apparent inhibition constant.

Row | SMILES | bioavailability [1] [%] | Ki (human NEP) [nM] | pKi (human NEP)
1 | Cc1cc(C(=O)NC(Cc2ccc(-c3cc(Cl)ccc3F)cc2)C[C@@H](CC#N)C(=O)O)sn1 (single isomer, unassigned) [Example 52-1] | > 10 | ≤ 1 | 
2 | CCc1cc(C(=O)N[C@H](Cc2ccc(-c3cc(Cl)ccc3F)cc2)C[C@@H](COC)C(=O)O)on1 [Example 1, (2S,4S)-5-(5′-Chloro-2′-fluorobiphenyl-4-yl)-4-[(3-ethylisoxazole-5-carbonyl)amino]-2-methoxymethylpentanoic Acid] | > 10 | ≤ 1 | 
3 | COC[C@H](C[C@@H](Cc1ccc(-c2cc(Cl)ccc2F)cc1)NC(=O)c1n[nH]c(C(F)(F)F)n1)C(=O)O [Example 2-2, (2S,4S)-5-(5′-Chloro-2′-fluorobiphenyl-4-yl)-2-methoxymethyl-4-[(5-trifluoromethyl-1H-[1,2,4]triazole-3-carbonyl)amino]pentanoic acid] | > 10 |  | ≧9.0
4 | COC[C@H](C[C@@H](Cc1ccc(-c2cc(Cl)ccc2F)cc1)NC(=O)c1cc(OC)no1)C(=O)O [Example 2-6, (2S,4S)-5-(5′-Chloro-2′-fluorobiphenyl-4-yl)-4-[(3-methoxyisoxazole-5-carbonyl)-amino]-2-methoxymethylpentanoic acid] | > 10 |  | ≧9.0
5 | COC[C@H](C[C@@H](Cc1ccc(-c2cc(Cl)ccc2F)cc1)NC(=O)c1cocn1)C(=O)O [Example 2-8, (2S,4S)-5-(5′-Chloro-2′-fluorobiphenyl-4-yl)-2-methoxymethyl-4-[(oxazole-4-carbonyl)amino]pentanoic acid] | > 10 |  | ≧9.0
6 | COC[C@H](C[C@@H](Cc1ccc(-c2cc(Cl)ccc2F)cc1)NC(=O)c1coc(C2CC2)n1)C(=O)O [Example 2-9, (2S,4S)-5-(5′-Chloro-2′-fluorobiphenyl-4-yl)-4-[(2-cyclopropyloxazole-4-carbonyl)amino]-2-methoxymethylpentanoic acid] | > 10 |  | ≧9.0
7 | COC[C@H](C[C@@H](Cc1ccc(-c2cc(Cl)ccc2F)cc1)NC(=O)c1ncccn1)C(=O)O [Example 2-13, (2S,4S)-5-(5′-Chloro-2′-fluorobiphenyl-4-yl)-2-methoxymethyl-4-[(pyrimidine-2-carbonyl)amino]pentanoic acid] | > 10 |  | ≧9.0
8 | COC[C@H](C[C@@H](Cc1ccc(-c2cc(Cl)ccc2F)cc1)NC(=O)c1ncc(C)o1)C(=O)O [Example 2-15, (2S,4S)-5-(5′-Chloro-2′-fluorobiphenyl-4-yl)-2-methoxymethyl-4-[(5-methyloxazole-2-carbonyl)amino]pentanoic acid] | > 10 |  | ≧9.0
9 | CCOc1cc(C(=O)N[C@H](Cc2ccc(-c3cc(Cl)ccc3F)cc2)C[C@@H](COC)C(=O)O)n[nH]1 [Example 2-16, (2S,4S)-5-(5′-Chloro-2′-fluorobiphenyl-4-yl)-4-[(5-ethoxy-1H-pyrazole-3-carbonyl)amino]-2-methoxymethylpentanoic acid] | > 10 |  | ≧9.0
10 | CCOC[C@H](C[C@@H](Cc1ccc(-c2cc(Cl)ccc2F)cc1)NC(=O)c1[nH]nc(C2CC2)c1F)C(=O)O [Example 7-2, (2S,4S)-5-(5′-Chloro-2′-fluorobiphenyl-4-yl)-4-[(5-cyclopropyl-4-fluoro-2H-pyrazole-3-carbonyl)amino]-2-ethoxymethylpentanoic acid] | > 10 |  | ≧9.0
11 | CCOC(=O)[C@H](N)C[C@@H](Cc1ccc(-c2cc(Cl)ccc2F)cc1)NC(=O)c1coc(=O)[nH]1 [Example 16-32, (2R,4R)-2-Amino-5-(5′-chloro-2′-fluorobiphenyl-4-yl)-4-[(2-oxo-2,3-dihydro-oxazole-4-carbonyl)amino]pentanoic acid ethyl ester] | > 10 |  | 
12 | CCOC(=O)[C@@H](C[C@@H](Cc1ccc(-c2cc(Cl)ccc2F)cc1)NC(=O)c1cnn[nH]1)CN1CCOCC1 [Example 69b, (2S,4S)-5-(5′-Chloro-2′-fluorobiphenyl-4-yl)-2-morpholin-4-ylmethyl-4-[(3H-[1,2,3]triazole-4-carbonyl)amino]pentanoic Acid Ethyl Ester] | > 10 |  | 
13 | CCOC(=O)[C@@H](C[C@@H](Cc1ccc(-c2cc(Cl)ccc2F)cc1)NC(=O)c1cnn[nH]1)CN1CCC1 [Example 84a, (2S,4S)-2-Azetidin-1-ylmethyl-5-(5′-chloro-2′-fluorobiphenyl-4-yl)-4-[(3H-[1,2,3]triazole-4-carbonyl)amino]pentanoic Acid Ethyl Ester] | > 10 |  | 
14 | CCOC(=O)[C@@H](C[C@@H](Cc1ccc(-c2cc(Cl)ccc2F)cc1)NC(=O)c1cnn[nH]1)CN1CC(F)C1 [Example 91a, (2S,4S)-5-(5′-Chloro-2′-fluorobiphenyl-4-yl)-2-(3-fluoroazetidin-1-ylmethyl)-4-[(3H-[1,2,3]triazole-4-carbonyl)amino]pentanoic Acid Ethyl Ester] | > 10 |  | 
15 | CC(C)(N)[C@H](C[C@@H](Cc1ccc(-c2cc(Cl)ccc2F)cc1)NC(=O)c1cnn[nH]1)C(=O)O [Example 104, (2S,4S)-2-(1-Amino-1-methylethyl)-5-(5′-chloro-2′-fluorobiphenyl-4-yl)-4-[(3H-[1,2,3]triazole-4-carbonyl)amino]pentanoic Acid] |  |  | ≧9.0
16 | O=C(N[C@H](Cc1ccc(-c2cc(Cl)ccc2F)cc1)C[C@@H](CN1CC(CCO)C1)C(=O)O)c1c[nH]nn1 [Example 105, (2S,4S)-5-(5′-Chloro-2′-fluorobiphenyl-4-yl)-2-[3-(2-hydroxyethyl)azetidin-1-ylmethyl]-4-[(1H-[1,2,3]triazole-4-carbonyl)amino]pentanoic Acid] |  | ≤ 1 | 

The remaining lines, values ahead:

Row | bioavailability [1] [%] | Ki (human NEP) [nM] | pKi (human NEP) | SMILES
17 | > 10 |  | ≧9.0 | COC[C@H](C[C@@H](Cc1ccc(-c2cc(Cl)ccc2F)cc1)NC(=O)c1c[nH]nn1)C(=O)O [Example 2-1, (2S,4S)-5-(5′-chloro-2′-fluorobiphenyl-4-yl)-2-methoxymethyl-4-[(1H-[1,2,3]triazole-4-carbonyl)amino]pentanoic acid]
18 | > 10 |  | ≧9.0 | COC[C@H](C[C@@H](Cc1ccc(-c2cccc(Cl)c2)cc1)NC(=O)c1cnn[nH]1)C(=O)O [Example 3, (2S,4S)-5-(3′-Chlorobiphenyl-4-yl)-2-methoxymethyl-4-[(3H-[1,2,3]triazole-4-carbonyl)amino]pentanoic Acid]
19 | > 10 |  | ≧9.0 | COC[C@H](C[C@@H](Cc1ccc(-c2ccccc2)cc1)NC(=O)c1c[nH]nn1)C(=O)O [Example 5, (2S,4S)-5-Biphenyl-4-yl-2-methoxymethyl-4-[(1H-[1,2,3]-triazole-4-carbonyl)amino]pentanoic Acid]
20 | > 10 |  | ≧9.0 | CCOC[C@H](C[C@@H](Cc1ccc(-c2cc(Cl)ccc2F)cc1)NC(=O)c1c[nH]nn1)C(=O)O [Example 7-1, (2S,4S)-5-(5′-Chloro-2′-fluorobiphenyl-4-yl)-2-ethoxymethyl-4-[(1H-[1,2,3]triazole-4-carbonyl)amino]pentanoic acid]
21 |  | ≤ 1 |  | COC1CN(C[C@@H](C[C@@H](Cc2ccc(-c3cc(Cl)ccc3F)cc2)NC(=O)c2c[nH]nn2)C(=O)O)C1 [Example 102c, (2R,4S)-5-(5′-Chloro-2′-fluorobiphenyl-4-yl)-2-(3-methoxyazetidin-1-ylmethyl)-4-[(1H-[1,2,3]triazole-4-carbonyl)amino]pentanoic Acid]
22 |  | ≤ 1 |  | COC[C@H]1CCN1C[C@H](C[C@@H](Cc1ccc(-c2cc(Cl)ccc2F)cc1)NC(=O)c1c[nH]nn1)C(=O)O [Example 103b, (2S,4S)-5-(5′-Chloro-2′-fluorobiphenyl-4-yl)-2-((R)-2-methoxymethylazetidin-1-ylmethyl)-4-[(3H-[1,2,3]triazole-4-carbonyl)amino]pentanoic Acid]
23 |  | ≤ 1 |  | COC[C@@H]1CCN1C[C@H](C[C@@H](Cc1ccc(-c2cc(Cl)ccc2F)cc1)NC(=O)c1c[nH]nn1)C(=O)O [Example 103d, (2S,4S)-5-(5′-Chloro-2′-fluorobiphenyl-4-yl)-2-((S)-2-methoxymethylazetidin-1-ylmethyl)-4-[(3H-[1,2,3]triazole-4-carbonyl)amino]pentanoic Acid]
24 |  | 1.26 to 3.16 |  | CN(CCO)C[C@H](C[C@@H](Cc1ccc(-c2cc(Cl)ccc2F)cc1)NC(=O)c1c[nH]nn1)C(=O)O [Example 106, (2S,4S)-5-(5′-Chloro-2′-fluorobiphenyl-4-yl)-2-{[(2-hydroxyethyl)-methylamino]methyl}-4-[(1H-[1,2,3]triazole-4-carbonyl)amino]pentanoic Acid]
